Experimental data: ChEMBL document CHEMBL1129098, “Structure-activity dependency of new bacterial tryptophanyl tRNA synthetase inhibitors” (Bioorg Med Chem Lett, 1996)
In brackets after ≈: the same amount, converted by molar mass.

Tests used:
Staphylococcus aureus = assay: Antibacterial activity against Staphylococcus aureus; assay type: functional
[1] = Inhibition of tryptophanyl tRNA synthetase isolated from Staphylococcus aureus

Row | Structure (SMILES) | MIC (Staphylococcus aureus) [µg/mL] | I50 [1] [ng/mL]
1 | CNC1=NC(=O)[C@H](C(C)(C)c2c[nH]c3ccccc23)O1 | 32 (≈ 118 µM) | 580
2 | CNC1=NC(=O)[C@H](Cc2c[nH]c3ccccc23)O1 | 64 (≈ 263 µM) | 1550
3 | CNC1=NC(=O)[C@H]([C@H](C)c2c[nH]c3ccccc23)O1 [INDOMYCIN] | 0.125 (≈ 0.486 µM) | 16
4 | CNC1=NC(=O)[C@H]([C@@](C)(O)c2c[nH]c3ccccc23)O1 | 0.25 (≈ 0.915 µM) | 46
5 | CNC1=NC(=O)[C@](C)([C@H](C)c2c[nH]c3ccccc23)O1 | 64 (≈ 236 µM) | 1200
6 | CNC1=NC(=O)[C@H]([C@](C)(O)c2c[nH]c3ccccc23)O1 | > 64 | > 100000
7 | CNC1=NC(=O)[C@H]([C@H](O)c2c[nH]c3ccccc23)O1 | > 64 | 4000
8 | CNC1=NC(=O)[C@](C)([C@@H](C)c2c[nH]c3ccccc23)O1 | > 512 | > 100000
9 | CNC1=NC(=O)[C@H]([C@H](/C=N\O)c2c[nH]c3ccccc23)O1 | > 512 | > 100000
10 | CNC1=NC(=O)[C@H]([C@@H](CC(=O)OC(C)(C)C)c2c[nH]c3ccccc23)O1 | > 512 | > 100000
11 | CNC1=NC(=O)[C@H]([C@@H](O)c2c[nH]c3ccccc23)O1 | > 64 | 44000
12 | CNC1=NC(=O)[C@H]([C@H](CC(=O)OC(C)(C)C)c2c[nH]c3ccccc23)O1 | > 512 | > 100000
13 | CNC1=NC(=O)[C@H]([C@@H](C)c2c[nH]c3ccccc23)O1 | 8 (≈ 31.1 µM) | 500

Continued, in another order:

Row | MIC (Staphylococcus aureus) [µg/mL] | Structure (SMILES) | I50 [1] [ng/mL]
14 | 64 (≈ 236 µM) | CC[C@H](c1c[nH]c2ccccc12)[C@@H]1OC(NC)=NC1=O | 250
15 | > 512 | CC[C@@H](c1c[nH]c2ccccc12)[C@@H]1OC(NC)=NC1=O | 22000
16 | 64 (≈ 212 µM) | CNC1=NC(=O)[C@H]([C@H](C[N+](=O)[O-])c2c[nH]c3ccccc23)O1 | 2300
17 | > 64 | CNC1=NC(=O)[C@H]([C@@H](C[N+](=O)[O-])c2c[nH]c3ccccc23)O1 | > 100000
18 | > 512 | CNC1=NC(=O)[C@H]([C@H](CN)c2c[nH]c3ccccc23)O1 | > 100000
19 | > 512 | CNC1=NC(=O)[C@H]([C@@H](CC(=O)O)c2c[nH]c3ccccc23)O1 | > 100000
20 | > 512 | CNC1=NC(=O)[C@H]([C@H](CC(=O)O)c2c[nH]c3ccccc23)O1 | > 100000
